What was measured:
[1] = test system: myotube mitochondrial biogenesis; test: Myotube mitochondrial biogenesis (NAO binding), Example 1; type: cell-based; details: assessed fluorometrically via NAO binding
Protocol: We next investigated the role of intact leucine (0-0.5 mM) vs. its metabolites, α-ketoisocaproic acid (KIC) (0-0.5 mM) and HMB (0-50 μM). […] Both leucine and HMB increased myotube mitochondrial biogenesis (assessed fluorometrically via NAO binding) by ˜50%, (p<0.005, FIG. 3).

[2] = test system: Adipocytes (3T3-L1); test: Fatty acid oxidation (3H-palmitate) in 3T3-L1 adipocytes; type: cell-based; details: high (25 mM) glucose, 4 hours; leucine 0.5 mM, HMB 5 uM, resveratrol 200 nM; vs. control
Protocol: High glucose medium reduced fatty acid oxidation by 46% (p<0.05).
Fatty acid oxidation was measured using ^3H-labeled palmitate oxidation, with the ^3H label trapped as water as a result of the fat oxidation. The ^3H was then measured via scintillation counter.

[3] = target: T1, SIRT1 (Homo sapiens, UniProt Q96EB6); test: SIRT1 activity, cell-free fluorimetric deacetylation assay; type: biochemical; details: cell-free system
T1 construct: purchased ENZO Life Sciences International, Inc. BML-AK555
T1 sequence (Q96EB6 1-747): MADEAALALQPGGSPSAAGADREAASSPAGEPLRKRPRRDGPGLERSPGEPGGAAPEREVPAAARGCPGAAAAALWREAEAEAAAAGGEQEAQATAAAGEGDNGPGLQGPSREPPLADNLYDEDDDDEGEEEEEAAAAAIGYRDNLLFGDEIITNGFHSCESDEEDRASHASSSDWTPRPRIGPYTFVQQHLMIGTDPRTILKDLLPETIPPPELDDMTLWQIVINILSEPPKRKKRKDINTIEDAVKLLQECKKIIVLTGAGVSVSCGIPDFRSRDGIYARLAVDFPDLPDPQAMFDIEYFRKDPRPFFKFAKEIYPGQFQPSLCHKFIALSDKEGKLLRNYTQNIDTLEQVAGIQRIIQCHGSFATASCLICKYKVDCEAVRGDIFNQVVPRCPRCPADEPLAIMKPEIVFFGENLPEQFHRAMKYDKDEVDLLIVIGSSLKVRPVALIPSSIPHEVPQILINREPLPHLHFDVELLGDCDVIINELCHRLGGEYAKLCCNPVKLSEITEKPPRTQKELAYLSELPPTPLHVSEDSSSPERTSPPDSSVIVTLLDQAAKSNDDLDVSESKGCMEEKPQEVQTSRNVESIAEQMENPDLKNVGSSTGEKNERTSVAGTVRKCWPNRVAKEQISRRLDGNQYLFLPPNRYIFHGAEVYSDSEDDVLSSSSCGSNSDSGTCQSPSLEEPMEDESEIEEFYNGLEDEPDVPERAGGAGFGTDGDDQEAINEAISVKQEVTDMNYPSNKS
Protocol: SIRT1 activity was measured by using the SIRT1 Fluorimetric Drug Discovery Kit (BML-AK555, ENZO Life Sciences International, Inc. PA, USA). In this assay, SIRT1 activity is assessed by the degree of deacetylation of a standardized substrate containing an acetylated lysine side chain. The substrate utilized is a peptide containing amino acids 379-382 of human p53 (Arg-His-Lys-Lys[Ac]), an established target of SIRT1 activity; SIRT1 activity is directly proportional to the degree of deacetylation of Lys-382. Samples were incubated with peptide substrate (25 μM), and NAD^+ (500 μM) in a phosphate-buffered saline solution at 37° C. on a horizontal shaker for 45 minutes. The reaction was stopped with the addition of 2 mM nicotinamide and a developing solution that binds to the deacetylated lysine to form a fluorophore. Following 10 minutes incubation at 37° C., fluorescence was read in a plate-reading fluorometer at an excitation wavelength of 360 nm and an emission wavelength of 450 nm. […] A standard curve was constructed using deacetylated substrate (0-10 μM).

CC(C)(O)CC(=O)O [HMB]
increase in myotube mitochondrial biogenesis [1]: ~50%
increase in fatty acid oxidation, high glucose [2]: 29%
SIRT1 activity [3]: significantly increased SIRT1 activity
